Assay results reported in US6489348B1, “Fungicidal mixtures based on amide compounds and pyridine derivatives” (BASF Aktiengesellschaft, priority 1997, dated 2002).

Tested on: powdery mildew of wheat (Erysiphe graminis forma specialis tritici)
Assay: Activity against powdery mildew of wheat (protective spray test on potted seedlings)
Type: in vivo
Conditions: evaluated after 7 days
Protocol: The active ingredients, separately or together, are formulated as 10% emulsion in a mixture of 63% by weight of cyclohexanone and 27% by weight of emulsifier, and diluted with water to the desired concentration.
Evaluation is carried out by determining the infected leaf areas in percent. These percentages are converted into efficacies. The efficacy (W) is calculated as follows using Abbot's formula: […]
α corresponds to the fungal infection of the treated plants in % and β corresponds to the fungal infection of the untreated (control) plants in % An efficacy of 0 means that the infection level of the treated plants corresponds to that of the untreated control plants; an efficacy of 100 means that the treated plants were not infected.
The expected efficacies of the mixtures of the active ingredients were determined using Colby's formula [R. S. Colby, Weeds 15, 20-22 (1967)] and compared with the observed efficacies.
Colby formula: E=x+y −x·y/100
E expected efficacy, expressed in % of the untreated control, when using the mixture of the active ingredients A and B at the concentrations a and b x efficacy, expressed in % of the untreated control, when using active ingredient A at a concentration of a y efficacy, expressed in % of the untreated control, when using active ingredient B at a concentration of b Leaves of potted […] seedlings of the variety “Fruhgold” were sprayed to runoff point with an aqueous formulation of active ingredient prepared from a stock solution consisting of 10% of active ingredient, 63% of cyclohexanone and 27% of emulsifier. 24 hours after the spray coating had dried on, the leaves were dusted with spores of powdery mildew of wheat (Erysiphe graminis forma specialis tritici). The test plants were subsequently kept in a greenhouse at 20-24° C. and 60-90% relative atmospheric humidity. After 7 days, the extent of the mildew development was determined visually in % infection of the total leaf area.

[1] = 16 ppm active ingredient in the spray liquor
[2] = 63 ppm active ingredient in the spray liquor

| Compound | Efficacy in % of the untreated control [1] | Efficacy in % of the untreated control [2] |
| --- | --- | --- |
| O=C(Nc1ccccc1-c1ccc(F)cc1)c1cccnc1Cl [I.1] | 0% | 0% |
| O=C(Nc1ccccc1-c1ccc(Cl)cc1)c1cccnc1Cl [I.2] | 0% | 0% |
